Assay results as given in publication PMC6081452, “Downstream Products are Potent Inhibitors of the Heparan Sulfate 2-O-Sulfotransferase” (Scientific Reports, 2018).
Numbering of substitutions follows the chain as printed.

Tests used:
Set-up in all cases: species or system chicken
[1] = molecular target: T1, non-glyc-HS2ST H142A (Gallus gallus, UniProt Q76KB1, H142A); assay: BLI equilibrium binding, non-glyc-HS2ST H142A; conditions: BLI saturation binding curves, n = 3, ± standard error of fit
T1 construct: made in house; host or cells: E. coli Origami B (DE3)
T1 sequence (Q76KB1 69-356 H142A limits assumed): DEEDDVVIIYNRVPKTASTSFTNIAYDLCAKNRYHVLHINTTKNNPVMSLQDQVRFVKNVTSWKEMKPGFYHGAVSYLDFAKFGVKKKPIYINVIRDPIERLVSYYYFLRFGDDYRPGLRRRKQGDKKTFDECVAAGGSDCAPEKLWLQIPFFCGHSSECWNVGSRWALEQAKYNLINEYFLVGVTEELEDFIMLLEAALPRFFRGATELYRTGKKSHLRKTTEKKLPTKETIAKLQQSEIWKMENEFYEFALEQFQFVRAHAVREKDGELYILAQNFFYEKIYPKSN
Excerpt: (§1) To assess whether the inhibitory compounds interact with the active site, point mutations were introduced in non-glyc-HS2ST (Fig. 4a). Four mutants of the catalytic residue (H142A/E/R/K) were created, along with a mutation of the residue that facilitates 2-O-sulfation of IdoA residues (R189A)[27]. Additionally, a negative control (NC) was generated containing multiple mutations of positively charged residues (R189A, R80E, and R184E) that reduced the net charge of each protein monomer by 5. The extent that the mutations affected affinity provided an indication that the ligand had been bound in the active site (Table 1 and Supplementary Fig. 1). While R189A markedly diminished the affinity for all compounds, the NC mutations reduced affinity to immeasurable levels. Removal of the catalytic side chain (H142A) enhanced the affinity of each compound, compared to the WT, by approximately 2–3-fold. Addition of a positive charge at this location (H142K/R) further enhanced the affinity for each compound, so much so that a KD value could be measured even for 2. The H142E mutation diminished the affinity of 5 by half compared to WT, but its effects were less significant for binding to 3 or 4.
(§2) The chicken HS2ST-Maltose Binding Protein (MBP) fusion protein was expressed and purified according to previous studies. The fusion protein was transformed into E. coli Origami B (DE3) cells, cultured at 37 °C until OD600 reached 0.5, then induced with isopropyl-β-D-thiogalactopyranoside and allowed to grow overnight at 20 °C. Cells were sonicated, followed by a two-step purification procedure. Whole-cell supernatant was passed through an amylose column with Tris buffer (25 mM Tris, 500 mM NaCl, pH 7.5). An elution buffer consisted of Tris Buffer with 40 mM Maltose. The amylose column eluent was concentrated and loaded on a Superdex 200 Increase 10/300 GL with PBS buffer (10 mM sodium phosphate, 150 mM NaCl, pH 7.8) to separate trimeric protein from aggregate and independent MBP (Supplementary Fig. 4). All reported mutations formed homotrimeric complexes according to the SEC profiles, including the negative control (NC = R189A/R80E/R184E). Protein concentration was assessed via UV at 280 nm (MW of trimer ~210 KDa, extinction coefficient ~119,000 M^−1 cm^−1 according to ExPASy ProtParam webtool[56]). The trimeric protein preparation was adjusted to 5% glycerol and stored at −20 °C until use. Additional non-glyc-HS2ST constructs were created with the Q5® Mutagenesis kit (New England Biolabs Inc.; cat. # E0554S) and sequenced at the Georgia Genomics Facility at the University of Georgia.
(§3) The Octet® RED96 system (FortéBio Inc.) was employed to detect the affinity of the enzymes for specific HS targets. […]

[2] = molecular target: T2, non-glyc-HS2ST H142E (Gallus gallus, UniProt Q76KB1, H142E); assay: BLI equilibrium binding, non-glyc-HS2ST H142E; conditions: for Kd: BLI saturation binding curves, n = 3, ± standard error of fit, — = response too weak to fit
T2 construct: made in house; host or cells: E. coli Origami B (DE3)
T2 sequence (Q76KB1 69-356 H142E limits assumed): T1 sequence (Q76KB1 69-356 H142A limits assumed) with A74E
Excerpt: as §1, §2
The Octet® RED96 system (FortéBio Inc.) was employed to detect the affinity of the enzymes for specific HS targets. Due to the small size of the glycan and the deep HS2ST binding cavity, the glycan and protein were treated as ligand and analyte, respectively. Varyingly sulfated HS fragments conjugated to biotin linkers were purchased from Glycan Therapeutics Inc. with purities greater than 93% according to HPLC (sequences located in Supplementary Table 1). The glycans were immobilized onto streptavidin (SA) labeled biosensors (FortéBio; cat. #18–5019) at 0.5 µg/mL. Experiments were performed at 25 °C in PBS Buffer (10 mM sodium phosphate, 150 mM NaCl, pH 7.8) with a final concentration of 1X Pall Kinetics buffer (FortéBio Inc; cat. #18–1092). Fresh biosensors and protein samples were used for each measurement (no regeneration step). […]

[3] = molecular target: T3, non-glyc-HS2ST R189A (Gallus gallus, UniProt Q76KB1, R189A); assay: BLI equilibrium binding, non-glyc-HS2ST R189A; conditions: BLI saturation binding curves, n = 3, ± standard error of fit; — = response too weak to fit
T3 construct: made in house; host or cells: E. coli Origami B (DE3)
T3 sequence (Q76KB1 69-356 R189A limits assumed): T1 sequence (Q76KB1 69-356 H142A limits assumed) with A74H, R121A
Excerpt: as §1, §2, §3

Row | Kd [1] [nM] | Kd [2] [nM] | Kd [3] [nM] | Diminution of affinity by H142E compared to WT ([2]; non-glyc-HS2ST H142E versus WT, BLI) | Substance
1 | 10 ± 2 | 19 ± 3 | 63 ± 5 |  | GlcNS6S-GlcA-GlcNS3S6S-IdoA2S-GlcNS6S-GlcA~ [Compound 4]
2 | 25 ± 2 | 140 ± 11 | > 500 | half | GlcNS6S-GlcA-GlcNS6S-GlcA-GlcNS6S-GlcA~ [Compound 5]
3 | 20 ± 3 | 41 ± 4 | 448 ± 124 |  | GlcNS6S-GlcA-GlcNS6S-IdoA2S-GlcNS6S-GlcA~ [Compound 3]
4 | 460 ± 91 | > 500 | > 500 |  | GlcNS-GlcA-GlcNS-IdoA2S-GlcNS-GlcA~ [Compound 2]
